Laboratory results from US11660326B2, “Bacterial-binding peptides for treatment of infectious diseases and related inflammatory processes” (priority 2018, dated 2023).
Read-outs that look alike come from different tables or passages of the source.

Key:
[1] = Intrinsic tryptophan fluorescence binding, apparent Kd for Re-LPS; set-up: species or system Salmonella minnesota serotype Re 595; details: for Kd: PBS, peptide 10 μg/mL, Hill fit
Experimental: (§1) FIG. 4. Kd analysis of the LPS and LTA interaction with CD6-derived peptides and protein. The apparent Kd values for the binding of peptides and proteins in study to LPS and LTA determined by fluorescence emission of tryptophan residues are shown. Peptides/proteins (10 μg/mL) were titrated with or without increasing concentrations of Re-LPS or LTA in PBS. Peptide samples (with and without either Re-LPS or LTA) and blank samples (Re-LPS or LTA alone) were excited at 295 nm, and the emission spectra recorded from 300 to 400 nm. Results are expressed as the change in peptide fluorescence (AF) at the wavelength of the emission maxima (353 nm for the peptides and 337 nm for rshCD6 protein) in the presence and absence of either Re-LPS or LTA. Results are means±SD of 3 experiments. Peptide fluorescence changes at 353 nm were fitted to the Hill equation.
(§2) Intrinsicfluorescence experiments. To explore the ability of different peptides/proteins to bind LTA (Mr=14,000, from S. aureus) and rough LPS (Re-LPS, Mr=2500, from Salmonella minnesota serotype Re 595), binding studies were carried out in an AB2 spectrofluorimeter with a thermostated cuvette holder (±0.1° C.), using 5×5 mm path-length quartz cuvettes as described (Coya J M, et al., 2015, Natural Anti-Infective Pulmonary Proteins: In Vivo Cooperative Action of Surfactant Protein SP-A and the Lung Antimicrobial Peptide SP-BN, J Immunol 195:1628-36). Re-LPS concentration was assessed by quantification of 2-keto-3-deoxyoctulosonic acid (Garcia-Verdugo I, et al., 2003, Effect of hydroxylation and N187-linked glycosylation on molecular and functional properties of recombinant human surfactant protein A, Biochemistry 42:9532-42). Peptide/protein samples (10 μg/mL) were titrated with different amounts of a stock solution of either LTA or Re-LPS in phosphate buffered saline (PBS) pH 7.2, and the Trp fluorescence emission spectra recorded with excitation at 295 nm. The fluorescence intensity readings were corrected for the dilution caused by […]. Background intensities in peptide/protein-free samples due to LTA or Re-PS were subtracted from each recording. The apparent dissociation constant (Kd) of peptide/protein-ligand complexes were obtained by nonlinear least-squares fitting to the Hill equation of the change in peptide fluorescence at 353 nm with the amount of added LTA or Re-LPS (Garcia-Verdugo I, et al., 2003, Effect of hydroxylation and N187-linked glycosylation on molecular and functional properties of recombinant human surfactant protein A, Biochemistry 42:9532-42): ΔF/ΔFmax=[L]^n/([L]^n+Kd), where ΔF is the change in fluorescence intensity at 353 nm relative to the intensity of free peptide; ΔFmax is the change in fluorescence intensity at saturating LTA or Re-LPS concentrations; [L] is the molar concentration of free ligand; and n is the Hill coefficient.

[2] = Endotoxin adsorption on peptide/protein-coated Eupergit beads (LAL assay); details: 50 UI/mL LPS, 0-150 min, vs HSA- and rshCD5-coated controls
Experimental: FIG. 11. Endotoxin adsorption assays on immobilized CD6-derived peptides and proteins. Eupergit® beads coated with different CD6-derived peptides (PD2, PD3, and Pcons) (A) or proteins (rshCD5 and rshCD6) (B) were incubated for different periods of time (0, 30, 90 and 150 min) with a 50 UI/mL endotoxin solution. Limulus amoebocyte lysate activating activity (LAL activity) of supernatants was then monitored along time and the OD 405-620 nm represented. Beads coated with Human Serum Albumin (HSA) were used as negative controls. Shown are triplicates of a representative experiment from two independent performed. Statistical analysis was done by using the 2-tailed paired T test with 95% confidence interval (***, P<0.001).
Proteins or peptides (2.5 mg each) were immobilized via NH2 groups on macroporous acrylic EUPERGIT© beads (0.2 g; Röhm-Pharma GmbH, Germany) following a previously described protocol (Zimmermann M, et al., 1999, Endotoxin adsorbent based on immobilized human serum albumin. Clin Chem Lab Med 37:373-379). Peptide or protein-coated Eupergit® beads are obtained by incubation with stirring of the polymeric beads at room temperature with a solution of the peptides of the invention in sodium phosphate buffer 100 mM pH 8 for 24 hours. After incubation, the beads were washed 3 times with 3 M sodium chloride pH 7.0, 30 mM sodium phosphate buffer pH 4.0 and 30 mM sodium phosphate buffer pH 8.0. Finally, 154 mM sodium chloride solution pH 7.0 was added to the peptide or protein-coated beads.
LPS detection was performed by using the turbidimetric-kinetic Limulus Amebocyte Lysate (LAL) kit-QCL (50-650U, Lonza) following manufacturer's instructions. Protein/peptide-coated EUPERGIT® beads were incubated 1:1 (v:v) with the provided endotoxin solution (50 UI/mL) for different periods of time (0-150 min) at room temperature following manufacturer's instructions.

[3] = Intrinsic tryptophan fluorescence binding, apparent Kd for LTA; set-up: species or system S. aureus; details: for Kd: PBS, peptide 10 μg/mL, Hill fit
Experimental: as §1, §2

[4] = test system: mice undergoing CLP-induced septic shock; experiment: Plasma cytokine levels following CLP-induced sepsis; assay type: in vivo, C57BL/6J mice; details: 20 h post CLP; 6 mg/kg i.v. at +1 h; vs saline-treated group
Experimental: (§3) FIG. 9. Therapeutic effect of CD6.PD3 infusion on cytokine and bacterial load levels following CLP-induced sepsis. (A) C57BL/6J mice were i.v. infused at +1 h post CLP with saline (n=7) or CD6.PD3 peptide (6 mg/kg; n=9), and cytokine plasma levels were monitored by ELISA at different time points (4 h and 20 h) thereafter. Data are expressed as mean±SD. (B) Same mouse groups as in (A) were monitored for blood and spleen bacterial load at 20 h following CLP induction. Data are expressed as mean±SD of CFU/mg (spleen) or CFU/μL (blood). In all cases, statistical differences were evaluated using a 2-tailed Student t-test (*, P<0.05).
Animal procedures were approved by the Animal Experimentation Ethical Committee, University of Barcelona. High-grade mortality (≥90% mortality within the first 48-72 h) CLP-induced septic shock was induced in 8-10 week old C57BL/6J male mice (20-25 g; Charles River) as previously reported (Martinez-Florensa M, et al., 2017, Protective Effects of Human and Mouse Soluble Scavenger-Like CD6 Lymphocyte Receptor in a Lethal Model of Polymicrobial Sepsis, Antimicrob Agents Chemother 61:e01391-16).

[5] = test system: mice undergoing CLP-induced septic shock; experiment: Blood and spleen bacterial load following CLP-induced sepsis; assay type: in vivo, C57BL/6J mice; details: 20 h post CLP; 6 mg/kg i.v. at +1 h; vs saline control group
Experimental: as §3
For the assessment of bacterial load, blood and spleen samples from CLP-treated mice were collected, homogenized and diluted aseptically in sterile PBS. Serial dilutions were plated overnight on agar with 5% sheep blood (Becton Dickinson) at 37° C. Viable bacterial counts were expressed as CFU/mL (blood) or per mg (spleen).

GRVEMLEHGEW [CD6.PD2]
affinity / Kd for LPS, in words [1]: lower than the prototypical DMBT1.pbs1 and CD6.cons peptides or the rshCD6 protein itself | Kd [1]: 35 ± 2 nM | affinity / Kd for LPS, in words ([1]; listed as PD2): very high affinity | endotoxin levels (LAL assay) [2]: reduced endotoxin levels | affinity / Kd for LTA, in words [3]: lower than the prototypical DMBT1.pbs1 and CD6.cons peptides or the rshCD6 protein itself | Kd [3]: 0.31 ± 0.04 nM | affinity / Kd for LTA, in words ([3]; listed as PD2): very high affinity

GQVEVHFRGVW (CD6.PD3)
IL-1β level [4]: significant lower levels | IL-6 level [4]: significant lower levels | TNF-α level [4]: significant lower levels | endotoxin levels (LAL assay) [2]: reduced endotoxin levels | CFU isolated from blood [5]: lower CFU | CFU isolated from spleen [5]: lower CFU

GTVEVRLEASW [CD6.PD1]
affinity / Kd for LPS, in words [1]: lower than the prototypical DMBT1.pbs1 and CD6.cons peptides or the rshCD6 protein itself | Kd [1]: 3.5 ± 0.3 nM | affinity / Kd for LPS, in words ([1]; listed as PD1): very high affinity | affinity / Kd for LTA, in words [3]: lower than the prototypical DMBT1.pbs1 and CD6.cons peptides or the rshCD6 protein itself | Kd [3]: 0.39 ± 0.06 nM | affinity / Kd for LTA, in words ([3]; listed as PD1): very high affinity
